In patent US20230293535A1, “ERBB/BTK INHIBITORS” (Dizal (Jiangsu) Pharmaceutical Co., Ltd., priority 2018, published 2023):
Marks after values point to notes of the source that are not given here.

Columns and labels:
[1] = system: Her2 exon 20 insertion YVMA transduced NIH-3T3 cell line; assay: Cell proliferation, Her2 YVMAins NIH-3T3 (CellTiter-Glo, 72 h); type: cell-based; conditions: Mus musculus, NIH3T3, 72 h, Her2 YVMAins cells, 72 h proliferation; read-out: Her2 Exon 20 YVMA insertion GI50;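 also: viable cells quantified by ATP luminescence, growth over a day-zero baseline plate expressed as percent of DMSO control growth, compound dilution series in 10% FBS medium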
Ri-1 cells = assay: BTK (wt) cell proliferation, Ri-1 (CellTiter-Glo, 72 h); type: cell-based; conditions: Ri-1, 72 h, Ri-1 cells, 72 h, CellTiter-Glo; read-out: BTK WT Ri-1 GI50;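 also: viable cells quantified as cellular ATP luminescence, proliferation normalized to a time-zero plate and the DMSO control, compounds tested across a dilution series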
[2] = system: NSCLC with EGFR Exon20ins; assay: Anti-tumor activity in platinum-pretreated NSCLC patients with EGFR Exon20 insertion mutations; type: in vivo, human
Source text: Compound 52 is a rationally designed, oral, EGFR Exon20 insertion (Exon20ins) inhibitor, with wild-type EGFR selectivity. […] Compound 52 is currently in late stage development with multiple pivotal studies ongoing globally as ≥ 2nd line treatment after platinum-containing chemotherapies and 1st line for treatment naive patients. Results from multicenter, multi-arm, global studies are presented herein.
A total of 119 evaluable platinum-pretreated NSCLC patients with EGFR Exon20ins were included in efficacy set.

[3] = system: NSCLC with EGFR Exon20ins; assay: as above; type: in vivo, human; remark: listed apart in the source
[4] = In vitro rat hepatocytes clearance assay; conditions: male, rat, cryopreserved rat hepatocytes (suspension), rat hepatocytes Clint (µL/min/10^6cells), 1 µM-range incubation up to 100 min
Experimental: The protocol for rat/human hepatocytes metabolic stability assay is employed to determine the clearance of the compounds of the present disclosure in vitro.
Rat hepatocytes in male gender and human hepatocytes in mixed gender were obtained from commercial vendors (e.g., BioreclamationIVT) and stored at -150° C. prior to use. 10 mM stock solutions of tested compounds were prepared in DMSO. Thawing medium and supplement incubation medium (serum-free) were placed in a 37° C. water bath for at least 15 minutes prior to use. Stock solutions were diluted to 100 µM by combining 198 µL acetonitrile and 2 µL of 10 mM stock solution.
Vials of cryopreserved hepatocytes were removed from storage, ensured that vials remain at cryogenic temperatures. The vials were thawed in a 37° C. water bath with gently shaking. Vials were kept in water bath until all ice crystals had dissolved and were no longer visible. Vials were sprayed with 70% ethanol before being transferred to a biosafety cabinet. And then the contents were poured into the 50 mL thawing medium conical tube. Vials were centrifuged at 100 g for 10 minutes at room temperature.
Cell viability and density were counted using a Trypan Blue exclusion, and then cells were diluted with serum-free incubation medium to a working cell density of 1 × 10^6 viable cells/ml. […] The inactivated hepatocytes were used to prepare negative samples, which were used to exclude the misleading factor that resulted from instability of chemical itself.
Aliquots of 247.5 µL hepatocytes were dispensed into each well of a 96-well non-coated plate. The plate was placed in the incubator on an orbital shaker for approximately 10 minutes. Aliquots of 2.5 µL of the 100 µM test compounds were added into respective wells of the non-coated 96-well plate to start the reaction. This assay was performed in duplicate. The plate was incubated in the incubator on an orbital shaker for the designed time points. […] Samples were centrifuges for 20 minutes at 4000 g and aliquots of 100 µL of the supernatants were used for LC-MS/MS analysis for measurement of test compounds
In vitro hepatocyte clearance was estimated based on determination of elimination half-life (T½) of compounds disappearance from their initial concentrations. Peak area ratios of each compound (test or control) to IS was calculated. Ln (%Control) versus Incubation Time (min) curve was plotted, and the slope of a linear fitting line was calculated.

[5] = 50 mg (N = 3), post platinum-based chemotherapy
[6] = 100 mg (N = 2), post platinum-based chemotherapy
[7] = 200 mg (N = 21), post platinum-based chemotherapy
[8] = 300 mg (N = 84), post platinum-based chemotherapy
[9] = 400 mg (N = 9), post platinum-based chemotherapy
[10] = Total (N = 119), post platinum-based chemotherapy

C=CC(=O)Nc1cc(Nc2nccc(Nc3cc(Cl)c(F)cc3C(C)(C)O)n2)c(OC)cc1N1CC[C@@H](N(C)C)C1 [Compound 52, (R)-N-(5-(4-(5-chloro-4-fluoro-2-(2-hydroxypropan-2-yl)phenylamino)pyrimidin-2-ylamino)-2-(3-(dimethylamino)pyrrolidin-1-yl)-4-methoxyphenyl)a crylamide]
GI50 [1]: 101 nM
GI50 (Ri-1 cells): 51.3 nM
Best Objective Response Rate, PD (progressive disease) [2, 5]: 1 (33.3) n(%)
Best Objective Response Rate, PR [2, 5]: 0 (0.0) n(%)
Best Objective Response Rate, PR, confirmed [2, 5]: 0 (0.0) n(%)
Best Objective Response Rate, PR, pending confirmation [2, 5]: 0 (0.0) n(%)
Best Objective Response Rate, SD (stable disease) [2, 5]: 2 (66.7) n(%)
Best Objective Response Rate, PD (progressive disease) [2, 6]: 0 (0.0) n(%)
Best Objective Response Rate, PR [2, 6]: 1 (50.0) n(%)
Best Objective Response Rate, PR, confirmed [2, 6]: 1 (50.0) n(%)
Best Objective Response Rate, PR, pending confirmation [2, 6]: 0 (0.0) n(%)
Best Objective Response Rate, SD (stable disease) [2, 6]: 1 (50.0) n(%)
Best Objective Response Rate, PD (progressive disease) [2, 7]: 3 (14.3) n(%)
Best Objective Response Rate, PR [2, 7]: 10 (47.6) n(%)
Best Objective Response Rate, PR, confirmed [2, 7]: 7 (33.3) n(%)
Best Objective Response Rate, PR, pending confirmation [2, 7]: 2 (9.5)* n(%)
Best Objective Response Rate, SD (stable disease) [2, 7]: 9 (42.9) n(%)
Best Objective Response Rate, PD (progressive disease) [2, 8]: 9 (10.7) n(%)
Best Objective Response Rate, PR, confirmed [2, 8]: 32 (38.1) n(%)
Best Objective Response Rate, PR, pending confirmation [2, 8]: 8 (9.5)* n(%)
Best Objective Response Rate, SD (stable disease) [2, 8]: 35 (41.7) n(%)
best Overall Response Rate (ORR) ([2]; 300 mg once daily, 44/84 patients, post platinum-based chemotherapy): 52.4%
Best Objective Response Rate, PD (progressive disease) [2, 9]: 2 (22.2) n(%)
Best Objective Response Rate, PR [2, 9]: 2 (22.2) n(%)
Best Objective Response Rate, PR, confirmed [2, 9]: 2 (22.2) n(%)
Best Objective Response Rate, PR, pending confirmation [2, 9]: 0 (0.0) n(%)
Best Objective Response Rate, SD (stable disease) [2, 9]: 5 (55.6) n(%)
Best Objective Response Rate, PD (progressive disease) [2, 10]: 15 (12.6) n(%)
Best Objective Response Rate, PR [2, 10]: 57 (47.9) n(%)
Best Objective Response Rate, PR, confirmed [2, 10]: 42 (35.3) n(%)
Best Objective Response Rate, PR, pending confirmation [2, 10]: 10 (8.4)* n(%)
Best Objective Response Rate, SD (stable disease) [2, 10]: 52 (43.7) n(%)
ORR for patients with baseline brain metastasis ([2]; across studies, 11/25 patients): 44%
first response observed after treatment ([2]; single patient, stage IV NSCLC with CNS metastasis, 300 mg once daily): 6 weeks
anti-tumor activity in earlier clinical studies [3]: Significant anti-tumor activities
hepatocyte CLint at 1 µM [4]: 13.3 µL/min/1e6 cells
